# Tests used:
# Test in all cases: relative viability (nuclei count vs DMSO), 5 days (fraction); higher = more cells survive
# [1] = compound: CC(C)N(CCCNC(=O)Nc1ccc(C(C)(C)C)cc1)C[C@H]1O[C@@H](n2ccc3c(N)ncnc32)[C@H](O)[C@@H]1O + CC(=O)c1c(C)c2cnc(Nc3ccc(N4CCNCC4)cn3)nc2n(C2CCCC2)c1=O [Palbociclib] (partner 0.5 µM)
# Summary of the method: (§1)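 Relative viability is defined as nuclei in treated wells over nuclei in vehicle wells. Duplicate plates were run and medians reported. Lung cancer cell lines in 1536-well plates were dosed by pin tool one day after seeding, with one drug or with a fixed anchor-drug dose plus five library-drug doses (not always all listed) in √10 steps, and nuclei were counted after 5 days.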
# [2] = compound: CC(C)N(CCCNC(=O)Nc1ccc(C(C)(C)C)cc1)C[C@H]1O[C@@H](n2ccc3c(N)ncnc32)[C@H](O)[C@@H]1O + NC(=O)Nc1cc(-c2cccc(F)c2)sc1C(=O)N[C@H]1CCCNC1 [AZD7762] (partner 0.2 µM)
# Summary of the method: as §1
# Shikonin + Alpelisib = compound: CC(C)=CC[C@@H](O)C1=CC(=O)c2c(O)ccc(O)c2C1=O [Shikonin] + Cc1nc(NC(=O)N2CCC[C@H]2C(N)=O)sc1-c1ccnc(C(C)(C)C(F)(F)F)c1 [Alpelisib] (partner 2 µM)
# Summary of the method: as §1
# [3] = compound: CC(C)N(CCCNC(=O)Nc1ccc(C(C)(C)C)cc1)C[C@H]1O[C@@H](n2ccc3c(N)ncnc32)[C@H](O)[C@@H]1O + CC(C)C[C@H](NC(=O)[C@H](Cc1ccccc1)NC(=O)c1cnccn1)B(O)O [Bortezomib] (partner 0.002 µM)
# Summary of the method: as §1
Cell Line,relative viability ([1]; first compound 0.08 µM),relative viability ([1]; first compound 0.253 µM),relative viability ([1]; first compound 0.8 µM),relative viability ([1]; first compound 2.53 µM),relative viability ([1]; first compound 8 µM),relative viability ([2]; first compound 0.08 µM),relative viability ([2]; first compound 0.253 µM),relative viability ([2]; first compound 0.8 µM),relative viability ([2]; first compound 2.53 µM),relative viability ([2]; first compound 8 µM),relative viability (Shikonin + Alpelisib; first compound 0.01 µM),relative viability (Shikonin + Alpelisib; first compound 0.1 µM),relative viability (Shikonin + Alpelisib; first compound 0.3162 µM),relative viability (Shikonin + Alpelisib; first compound 1 µM),relative viability ([3]; first compound 0.08 µM),relative viability ([3]; first compound 0.253 µM),relative viability ([3]; first compound 0.8 µM),relative viability ([3]; first compound 2.53 µM),relative viability ([3]; first compound 8 µM)
NCI-H2342,0.556,0.533,0.481,0.551,0.549,0.454,0.535,0.455,0.505,0.397,,,,,,,,,
HCC-15,0.759,0.709,0.802,0.712,0.724,1.24,1.35,,0.95,1.28,0.881,0.949,1.04,0.912,0.979,1.04,0.773,1,0.943
A-427,0.525,0.546,0.556,0.578,0.515,0.79,0.682,0.735,0.699,0.711,1.12,1.2,1.07,1.13,0.927,0.973,0.996,1.01,0.967
NCI-H23,0.517,,0.506,0.48,0.446,0.252,,0.226,0.201,0.305,0.76,0.65,0.804,0.659,0.837,,0.523,0.94,1.17
NCI-H1734,0.328,0.385,0.353,0.192,0.365,0.546,0.441,0.634,0.565,0.466,0.7,0.722,0.788,0.663,0.701,0.921,0.355,0.973,0.847
NCI-H520,0.237,0.196,0.191,0.226,0.25,,,,,,,1.25,0.902,0.961,0.581,0.179,0.155,0.647,0.524
RERF-LC-KJ,1.01,1.07,1.18,1.17,1.07,1.09,0.954,0.867,0.981,0.84,0.78,0.732,0.798,0.787,0.97,1.15,1.09,1.04,0.971
NCI-H1915,0.517,0.543,0.517,0.533,0.525,0.674,0.726,0.607,0.668,0.56,1.09,1.12,1.13,1.04,0.911,0.972,0.622,0.894,0.935
NCI-H1666,0.64,0.634,0.659,0.65,0.656,0.924,0.898,0.758,0.844,0.773,0.915,0.964,1.07,0.856,0.802,0.775,0.613,0.83,0.697
HCC-366,0.34,0.372,0.41,0.375,0.396,0.208,0.237,0.277,0.104,0.249,0.329,0.347,0.423,0.379,0.996,0.999,0.948,1.05,1.04
SK-MES-1,0.317,0.357,0.309,0.375,0.325,,,,,,0.873,1.04,0.909,0.594,,,,,
NCI-H1993,0.616,,0.57,0.609,0.65,0.659,,0.941,0.777,0.673,,0.662,0.661,0.699,0.96,0.912,0.915,1.13,1.16
NCI-H838,0.217,0.178,0.182,0.247,0.251,0.864,0.909,0.912,0.806,0.95,1.02,1.18,1.04,1.21,0.755,0.372,0.626,0.672,0.788
SK-LU-1,0.431,0.42,0.332,0.389,0.36,,,,,,1,1.09,0.965,0.8,1.22,1.02,1.18,1.31,1.03
Calu-6,,,,,,,,,,,0.921,1.23,0.88,0.934,1.02,0.999,1.06,1,1.01
LC-2-ad,0.496,0.463,0.495,0.51,0.484,0.834,0.802,0.677,0.787,0.771,0.921,0.944,0.925,0.912,0.968,1.2,0.65,0.978,0.878
CAL-12T,0.418,0.341,0.488,0.445,0.38,0.572,0.617,0.665,0.668,0.565,1.14,1.13,1.19,1.2,1.04,0.739,0.907,0.847,0.784
SW 1573,0.377,0.431,0.419,0.401,0.336,,,,,,0.816,0.888,0.801,0.657,1.13,1.07,1.06,1.12,0.864
NCI-H1650,0.38,0.431,0.131,0.335,0.396,,,,,,,,,,0.185,0.205,,0.205,0.201
BEN,0.446,0.509,0.453,0.503,0.445,0.736,0.746,0.716,0.598,0.795,1.09,1.1,1.12,1.24,0.934,0.762,0.776,0.662,0.57
EMC-BAC-2,0.507,0.499,0.512,0.502,0.485,1.08,1.1,1.08,1.03,0.979,0.77,0.803,0.78,0.747,1,1.12,0.948,0.994,0.904
LU99A,0.399,0.387,0.436,0.427,0.405,0.416,0.316,0.421,0.473,0.317,0.592,0.671,0.576,0.441,1.12,0.831,1.38,1.16,1.2
NCI-H2170,0.407,0.399,0.372,0.381,0.351,0.934,0.79,0.66,0.836,0.857,0.824,0.672,0.92,0.793,,,,,

Cell Line,relative viability ([1]; first compound 0.08 µM),relative viability ([1]; first compound 0.253 µM),relative viability ([1]; first compound 0.8 µM),relative viability ([1]; first compound 2.53 µM),relative viability ([1]; first compound 8 µM),relative viability ([2]; first compound 0.08 µM),relative viability ([2]; first compound 0.253 µM),relative viability ([2]; first compound 0.8 µM),relative viability ([2]; first compound 2.53 µM),relative viability ([2]; first compound 8 µM),relative viability (Shikonin + Alpelisib; first compound 0.01 µM),relative viability (Shikonin + Alpelisib; first compound 0.1 µM),relative viability (Shikonin + Alpelisib; first compound 0.3162 µM),relative viability (Shikonin + Alpelisib; first compound 1 µM),relative viability ([3]; first compound 0.08 µM),relative viability ([3]; first compound 0.253 µM),relative viability ([3]; first compound 0.8 µM),relative viability ([3]; first compound 2.53 µM),relative viability ([3]; first compound 8 µM)
NCI-H1299,,,,,,,,,,,1.11,1.06,1.04,1.07,1.03,0.987,0.966,1.04,1.04
EBC-1,,,,,,,,,,,0.829,0.809,0.85,0.843,0.508,0.549,0.486,0.466,0.473
NCI-H2009,0.148,0.198,0.184,0.174,0.255,,,,,,1.31,1.24,1.22,0.802,1.05,0.817,0.883,1.08,0.955
NCI-H1648,0.268,0.315,0.335,0.287,0.323,0.656,0.812,0.525,0.645,0.707,,,,,,,,,
ChaGo-K-1,0.887,0.96,0.959,0.928,0.95,0.881,0.936,0.858,0.863,0.79,,,,,1.08,0.886,0.87,1.01,1.08
COR-L23,0.302,0.296,0.265,0.34,0.304,,,,,,0.845,0.913,0.86,0.719,0.87,0.968,0.464,1.1,0.929
COR-L 105,0.402,0.397,0.414,0.434,0.378,,,,,,1.09,1.18,1.07,0.728,0.719,0.537,0.719,0.744,0.75
LK-2,,0.665,0.845,0.775,0.622,,0.332,0.628,0.428,0.322,1.04,1.54,1.11,1.04,,,,,
NCI-H661,0.395,0.437,0.45,0.423,0.423,,,,,,0.676,0.718,0.893,0.792,0.63,0.753,0.625,0.747,0.719
NCI-H1944,0.322,0.302,0.348,0.329,0.353,0.678,0.415,0.537,0.559,0.575,0.747,0.936,0.992,0.909,,,,,
NCI-H1793,0.295,,0.292,0.38,0.303,0.614,,0.386,0.437,0.426,0.863,0.779,0.754,0.722,,,,,
A549,,,,,,,,,,,0.789,0.81,0.708,0.753,,,,,
NCI-H596,,,,,,1.09,0.943,0.926,1.23,1.09,0.464,0.481,0.543,0.504,0.997,0.843,0.746,1.05,1.2
NCI-H358,0.121,0.127,0.143,0.135,0.132,0.454,0.538,0.569,0.565,0.491,0.825,0.807,0.924,0.707,,,,,
NCI-H1563,,,,,,,,,,,0.906,0.999,0.875,0.779,0.844,0.811,0.626,0.873,0.902
NCI-H1395,0.587,0.59,0.651,0.626,0.625,0.424,0.412,0.42,0.421,0.38,1.14,1.16,0.973,1,,,,,
NCI-H2228,0.789,0.56,0.643,0.77,0.701,,,,,,0.66,0.781,0.73,0.556,0.788,,0.377,0.825,1.19
NCI-H2023,0.458,0.312,0.634,0.338,0.329,,,,,,0.579,0.709,0.589,0.598,0.89,0.451,0.872,1.09,0.821
NCI-H522,0.85,1.05,1.09,1.09,1.4,0.891,0.794,0.806,0.785,0.886,,,,,,,,,
IA-LM,,,,,,,,,,,0.862,0.667,0.637,0.69,0.81,0.693,0.752,0.689,0.712
NCI-H1703,,,,,,0.145,,0.137,0.105,0.114,0.317,0.277,0.287,0.244,0.244,0.316,0.273,0.381,0.307
SW 900,0.564,0.521,,0.543,0.473,0.718,0.529,,0.564,0.554,,,,,,,,,
